Experimental data taken from patent US20130029964A1, “[5, 6] HETEROCYCLIC COMPOUND” (DAIICHI SANKYO COMPANY, LIMITED, priority 2010, published 2013).
Counter-ions that a name gives are not always drawn.

The compounds below were run on ST2 cells, murine bone marrow-derived stromal cells (assay: Osteoblast differentiation test (ALP activity)). Details: Mus musculus, ST-2, 96 h, at 0.1 μg/mL, control group (0.1% DMSO) = 100%, four days of culturing, read-out: alkaline phosphatase activity.
Format: cell-based
Description: ST2 cells, murine bone marrow-derived stromal cells, (obtained from RIKEN) were used.
In this test, α-MEM media (obtained from GIBCO BRL Cat. No. 10370-021) containing 10% (v/v) of inactivated calf serum (obtained from Hyclone Laboratories, Inc.) and 1% (v/v) of Penicillin-Streptomycin Liquid (obtained from GIBCO BRL Cat. No. 15140-122) (hereinbelow, abbreviated as 10%-FBS-αMEM) were used. In this test, all culturing was performed in a CO2 incubator (37° C., 95% humidity, 5% CO2).
The aforementioned cells were detached with 2 mL of a 0.25% trypsin solution (obtained from GIBCO BRL Cat. No. 15050-065) and dispersed in 10 mL of 10%-FBS-αMEM. Subsequently, the cells were collected by centrifugation (25° C., 800 rpm, five minutes). Then, a cell suspension containing 40000 of the cells/mL of 10%-FBS-αMEM was prepared. The cell suspension was then dispensed into 96-well plates (the product of Falcon), 100 μL per well, at a density of 4000 cells/well, followed by culturing for 24 hours. To the wells, except for the below-described well containing a control group, the compound was dispensed at final concentrations of 0.01, 0.03, 0.1, and 0.3 μg/ml. To the well of a control group, DMSO was dispensed at a final concentration of 0.1% (v/v). After four days of culturing, the activity of alkaline phosphatase (ALP) was measured in each group.
The measurement of ALP activity was performed as follows. That is, the medium in each well of the culture plates was completely removed. Each well was then washed by dispensing 100 μL of Dulbecco's phosphate buffer (obtained from GIBCO BRL Cat. No. 14190-144) and then removing it. A cell lysate solution containing 10 mM MgCl2 and 2% (v/v) TritonX-100 (Sigma) was prepared and dispensed at 50 μL/well, followed by stirring at room temperature for five minutes. An ALP substrate solution containing 50 mM diethanolamine (Wako Pure Chemical Industries, Ltd., Cat. No. 099-03112) and 20 mM p-nitrophenyl phosphate (Wako Pure Chemical Industries, Ltd., Cat. No. 147-02343) was prepared and dispensed at 50 μL/well, and the plates were left to stand at room temperature for 10 minutes. Subsequently, absorbance was measured by a microplate reader (Bio-Rad Laboratories, Inc.). Setting the measurement value of the control group of each plate at 100%, alkaline phosphatase activity (increase (%)) in the test compound-addition group was calculated, which was assessed as the degree of osteoblast differentiation.

Row | Compound | activity at 0.1 µg/mL [%]
1 | c1ccn2ncc(-c3ccc(OCCOC4CCOCC4)cc3)c2c1 [Example 147] | ≥ 200
2 | Fc1ccc2ncc(-c3ccc(OCCOCC4CCOCC4)cc3)n2c1 [Example 80] | ≥ 200
3 | CC(=O)n1ccc(-c2ccc3c(c2)ncn3-c2ccc(OCCO)cc2)c1 [Example 62] | ≥ 200
4 | NC(=O)c1ccc(-c2ccc3c(c2)ncn3-c2ccc(OCCO)cc2)cc1 [Example 15, 4-{1-[4-(2-Hydroxyethoxy)phenyl]-1H-benzimidazol-5-yl}benzamide dihydrochloride] | ≥ 200
5 | CC(=O)N1CC=C(c2ccc3c(c2)ncn3-c2ccc(OCCO)cc2)CC1 [Example 60] | ≥ 200
6 | OCCNc1ccc(-n2cnc3ccccc32)cc1 [Example 97] | ≥ 200
7 | Fc1ccc2ncc(-c3ccc(OCCOC[C@@H]4COCCO4)cc3)n2c1 [Example 88] | ≥ 200
8 | CC(=O)N1CC=C(c2ccn3c(-c4ccc(OCCOC5CCOCC5)cc4)cnc3c2)CC1 [Example 68] | ≥ 200
9 | Clc1ccc2ncc(-c3ccc(NCCOC4CCOCC4)cc3)n2c1 [Example 135] | ≥ 200
10 | c1ccn2c(-c3ccc(NCCOC4CCOCC4)cc3)cnc2c1 [Example 109] | ≥ 200
11 | COc1ccn2ncc(-c3ccc(NCCO)cc3)c2c1 [Example 121] | ≥ 200
12 | N#Cc1ccc2ncc(-c3ccc(OCCOC[C@H]4COCCO4)cc3)n2c1 [Example 93] | ≥ 200
13 | OCCNc1ccc(-n2cnc3cc(Cl)c(Cl)cc32)cc1 [Example 26] | ≥ 200
14 | O=C(c1ccc(-c2ccc3c(c2)ncn3-c2ccc(OCCO)cc2)nc1)N1CCOCC1 [Example 130] | ≥ 200
15 | CN(C)C(=O)c1ccc(-c2ccn3c(N4CCC(OCCO)CC4)cnc3c2)cc1 [Example 107] | ≥ 200
16 | OCCOc1ccc(-n2cnc3ccc(Cl)cc32)cc1 [Example 31] | ≥ 200
17 | O=C(c1ccc(-c2ccn3c(N4CCC(OCCOC5CCOCC5)CC4)cnc3c2)cc1)N1CCOCC1 [Example 17, 7-[4-(Morpholin-4-ylcarbonyl)phenyl]-3-{4-[2-(tetrahydro-2H-pyran-4-yloxy)ethoxy]piperidin-1-yl}imidazo[1,2-a]pyridine] | ≥ 200
18 | O=C(c1ccc(-c2ccc3c(c2)ncn3-c2ccc(OCCO)cc2)cn1)N1CCOCC1 [Example 16, 2-(4-{5-[6-(Morpholin-4-ylcarbonyl)pyridin-3-yl]-1H-benzimidazol-1-yl}phenoxy)ethanol] | ≥ 200
19 | OCCOc1ccc(-n2cnc3cc(-c4ccccc4)ccc32)cc1 [Example 41] | ≥ 200
20 | O=C(O)c1ccc(-c2ccc3c(c2)ncn3-c2ccc(OCCO)cc2)cc1 [Example 13, 4-{1-[4-(2-Hydroxyethoxy)phenyl]-1H-benzimidazol-5-yl}benzoic acid] | ≥ 200

Row | Compound | activity at 0.1 µg/mL [%]
21 | O=C(COCCOc1ccc(-n2cnc3ccccc32)cc1)N1CCOCC1 [Example 56] | ≥ 200
22 | O=C(c1ccc(-c2ccn3c(-c4ccc(OCCO)cc4)cnc3c2)cc1)N1CCOCC1 [Example 102] | ≥ 200
23 | c1ccc2c(c1)ncn2-c1ccc(OCCOC2CCOCC2)cc1 [Example 100] | ≥ 200
24 | c1ccn2c(-c3ccc(OCCOC4CCOCC4)cc3)cnc2c1 [Example 98] | ≥ 200
25 | O=C(c1ccc(-c2ccn3c(-c4ccc(OCCOC5CCOCC5)cc4)cnc3c2)cn1)N1CCOCC1 [Example 133] | ≥ 200
26 | OC1COCC1OCCOc1ccc(-n2cnc3ccc(OC(F)F)cc32)cc1 (stereo not drawn) [Example 96] | ≥ 200
27 | O=C(c1ccc(-c2ccc3c(-c4ccc(OCCO)cc4)cnn3c2)nc1)N1CCOCC1 [Example 146] | ≥ 200
28 | COC1COCC1OCCOc1ccc(-c2cnc3ccc(F)cn23)cc1 (stereo not drawn) [Example 84] | ≥ 200
29 | N#Cc1ccc2ncn(-c3ccc(OCCOC[C@H]4COCCO4)cc3)c2c1 [Example 92] | ≥ 200
30 | CC(=O)Nc1ccc(-c2ccc3c(c2)ncn3-c2ccc(OCCO)cc2)cc1 [Example 14, N-(4-{1-[4-(2-Hydroxyethoxy)phenyl]-1H-benzimidazol-5-yl}phenyl)acetamide] | ≥ 200
31 | COc1ccc2c(c1)ncn2-c1ccc(OCCO)cc1 [Example 27] | ≥ 200
32 | CC(=O)N1CCC(OCCOc2ccc(-n3cnc4ccccc43)cc2)CC1 [Example 46] | ≥ 200
33 | Cn1cc(-c2ccn3c(-c4ccc(OCCO)cc4)cnc3c2)cn1 [Example 65] | ≥ 200
34 | OCCOc1ccc(-c2cnc3ccc(F)cn23)cc1 [Example 7, 2-[4-(6-Fluoroimidazo[1,2-a]pyridin-3-yl)phenoxy]ethanol] | ≥ 200
35 | O=C(O)c1ccc(OCCOc2ccc(-n3cnc4ccccc43)cc2)cc1 [Example 12, 4-{2-[4-(1H-Benzimidazol-1-yl)phenoxy]ethoxy}benzoic acid hydrochloride] | ≥ 200
36 | OCCOc1ccc(-c2cnn3ccccc23)cc1 [Example 117] | ≥ 200
37 | Fc1ccc2ncn(-c3ccc(OCCOC4CCOCC4)cc3)c2c1 [Example 48] | ≥ 200
38 | OCCOc1ccc(-c2cnc3cc(-c4ccncc4)ccn23)cc1 [Example 72] | ≥ 200
39 | COc1ccc2ncc(-c3ccc(OCCO)cc3)n2c1 [Example 124] | ≥ 200
40 | CN(C)S(=O)(=O)c1ccc(-c2ccn3c(-c4ccc(OCCO)cc4)cnc3c2)cc1 [Example 134] | ≥ 200

Row | Compound | activity at 0.1 µg/mL [%]
41 | OC1COCC1OCCOc1ccc(-c2cnc3ccc(F)cn23)cc1 (stereo not drawn) [Example 86] | ≥ 200
42 | c1cc(-n2cnc3cc4c(cc32)OCCO4)ccc1OCCOC1CCOCC1 [Example 49] | ≥ 200
43 | c1ccn2c(N3CCC(OCCOC4CCOCC4)CC3)cnc2c1 [Example 79] | ≥ 200
44 | c1cc(-c2ccc3ncc(-c4ccc(OCCOC5CCOCC5)cc4)n3c2)ccn1 [Example 141] | ≥ 200
45 | CC(=O)N1CC=C(c2ccn3c(-c4ccc(OCCO)cc4)cnc3c2)CC1 [Example 66] | ≥ 200
46 | c1cc(-c2ccn3c(-c4ccc(OCCOC5CCOCC5)cc4)cnc3c2)ccn1 [Example 74] | ≥ 200
47 | OCCOc1ccc(-c2cnc3ccc(Cl)cn23)cc1 [Example 116] | ≥ 200
48 | FC(F)Oc1ccc2ncn(-c3ccc(OCCOC4CCOCC4)cc3)c2c1 [Example 25, 6-(Difluoromethoxy)-1-{4-[2-(tetrahydro-2H-pyran-4-yloxy)ethoxy]phenyl}-1H-benzimidazole hydrochloride] | ≥ 200
49 | CCOc1ccn2c(-c3ccc(OCCO)cc3)cnc2c1 [Example 34] | ≥ 200
50 | NS(=O)(=O)c1ccc(-c2ccc3c(c2)ncn3-c2ccc(OCCO)cc2)cc1 [Example 52] | ≥ 200
51 | O=C(c1ccc(-c2ccn3c(-c4ccc(NCCOC5CCOCC5)cc4)cnc3c2)nc1)N1CCOCC1 [Example 132] | ≥ 200
52 | OCCNc1ccc(-n2cnc3ccc(Cl)cc32)cc1 [Example 4, 2-{[4-(6-Chloro-1H-benzimidazol-1-yl)phenyl]amino}ethanol hydrochloride] | ≥ 200
53 | CCOc1ccc2c(-c3ccc(OCCO)cc3)cnn2c1 [Example 126] | ≥ 200
54 | c1ccn2ncc(-c3ccc(NCCOC4CCOCC4)cc3)c2c1 [Example 143] | ≥ 200
55 | Fc1ccc2ncc(-c3ccc(NCCOC4CCOCC4)cc3)n2c1 [Example 111] | ≥ 200
56 | FC(F)Oc1ccc2ncn(-c3ccc(OCCOC[C@H]4COCCO4)cc3)c2c1 [Example 95] | ≥ 200
57 | COc1ccc2ncc(-c3ccc(OCCOC4CCOCC4)cc3)n2c1 [Example 20, 6-Methoxy-3-{4-[2-(tetrahydro-2H-pyran-4-yloxy)ethoxy]phenyl}imidazo[1,2-a]pyridine] | ≥ 200
58 | c1cc(-c2ccc3c(-c4ccc(OCCOC5CCOCC5)cc4)cnn3c2)ccn1 [Example 127] | ≥ 200
59 | Cc1cc(-c2ccc3c(c2)ncn3-c2ccc(OCCO)cc2)ccn1 [Example 43] | ≥ 200
60 | O=C(C1CC1)N1CCC(OCCNc2ccc(-c3cnc4ccccn34)cc2)CC1 [Example 137] | ≥ 200
